Each structure is given as a SMILES string.

The melting point is the temperature, or range, at which the solid turns liquid.

In turn, `COc1ccc(-c2cc(O)nc(Nc3ccc(OC)c(Cl)c3)n2)cc1` had a melting point of 292 to 294 °C.
The figure for `Cc1nnc(SCc2ccccc2)s1` is 60 to 63 °C.
Next, `O=C1CC(=O)OC(CCl)C1` (single isomer, unassigned; (-)): 98 to 99 °C; `O=C1N(Cc2ccco2)c2ccccc2C12COc1cc3c(cc12)OCO3` (centres undefined): 110 to 112 °C; `C[C@@H]1CCC[C@H](C)N1Cc1ccc2cc(NC(=O)N3CCC(c4ccc(Cl)cc4)CC3)ccc2c1`: 199 to 200 °C.
The figure for `BrC(Br)c1nc(C(Br)Br)nc(C(Br)Br)n1` is 130 to 131 °C.
In turn, `O=C1CCCOc2ccc(O)cc21` showed a melting point of 116 to 120 °C.
`NC(=O)c1[nH]c2ccc(Cl)cc2c1S(=O)(=O)c1cc(Cl)cc(Cl)c1` gave a melting point of 258 to 260 °C.
`CN(C)CCNC(=S)SC(C)(C)[C@H](NC(=O)c1ccc(Cl)cc1)C(=O)O` had a melting point of 142 to 143 °C.
The figure for `COc1ccc(CN2Cc3cncn3C(c3ccc(-c4ccc(Cl)cc4)cc3)C2=O)cc1` (centres undefined) is 270 to 273 °C; for `CNC(=O)Nc1ccc(Cl)cc1Cl` it is 214 °C.
The figure for `Cn1ccnc1Sc1ccc(Nc2c(C#N)cnc3cc(/C=C/CO)ccc23)cc1Cl` is 220 to 240 °C; for `Cn1ncc(/C=C/C(=O)Nc2ccc(Cc3ccccn3)cc2)c1-c1ccc(F)cc1` it is 215 to 216 °C; for `COC(=O)Cc1c(Cl)nc(C)nc1Nc1ccccc1` it is 115 to 116 °C.
The figure for `CC(C)(S)[C@@H]1C[C@H](CS)C(=O)N1` (relative stereo) is 159 to 161 °C; for `CCCc1c[nH]c(-c2ccc(Cl)cc2)c1-c1ccc(Cl)cc1` it is 90 to 93 °C.
In turn, `CC(C)Cn1cc(F)c(=O)[nH]c1=O` returned a melting point of 173 to 174 °C.
Next, `C[C@@H](n1ncn(-c2ccc(OCC(F)(F)C(F)F)cc2)c1=O)[C@](O)(C=O)c1ccc(F)cc1F`: 134 to 136 °C; `CCN(C(=O)OCc1ccccc1)c1c(OC)cc(C(=O)OC)cc1OC`: 85 to 86 °C.
Next, `CCOC(=O)C1=C(C)Nc2nc(N3CCOCC3)nc(N3CCOCC3)c2C1c1ccccc1C(F)(F)F` (centres undefined): 214 °C; `Cc1cccc(-c2nnnn2C)c1S(N)(=O)=O`: 140 to 161 °C.
As for `Cc1cc(NC(=O)c2c(Cl)cccc2Cl)c2nccc(Cl)c2c1C`, the melting point was 190 to 193 °C.
The figure for `COc1cc(OC)c(-c2cccs2)cc1/C=C/C(=O)c1ccc(S(=O)(=O)NCC(=O)O)cc1` is 100 to 101 °C.
The figure for `COc1ccc(C(=O)C2=C(c3ccccc3)c3ccc(OC)cc3CC2)cc1` is 107 to 108 °C.
The figure for `O=c1cc(-c2nnn[nH]2)oc2c(COc3ccc(OCc4ccc5ccccc5n4)cc3)cccc12` is over 250 °C; for `NCC(O)c1cccc(C(F)(F)F)c1` (centres undefined) it is 72 °C.
For the compound `O=c1c2cc(F)c(Cl)nc2n(Cc2ccccc2)c(=O)n1OCc1ccccc1`, the melting point was 209 to 210 °C.
The figure for `COC1(c2cc(F)cc(OCc3nc(-c4ccccc4)c(-c4ccc(S(N)(=O)=O)cc4)o3)c2)CCOCC1` is 70 to 80 °C.
Next, `O=C(O)CCCCNC(=O)Cc1ccc2c(c1)CC(NS(=O)(=O)c1ccc(Cl)cc1)C2` (centres undefined): 156 to 158 °C; `CSC[C@H](C)NC(=O)c1c(Cl)cccc1C(=O)Nc1ccc(Cn2c(C)nnc2C(F)(F)F)cc1C`: 168 to 170 °C; `OCC(Oc1ccc(-c2ccccc2)cc1)c1ccccc1` (centres undefined): 126 to 127 °C.
`O=c1c(Br)c(OCc2cccc(Cl)c2)ccn1Cc1cccc(F)c1` returned a melting point of 149 to 153 °C.
The figure for `Cn1cnc(S(=O)(=O)n2c(CCCC(=O)O)cc3cc(Cl)ccc32)c1` is 222 to 225 °C.
Next, `Cc1ccc(S(=O)(=O)NC(C)P(=O)(Oc2ccccc2)c2ccccc2)cc1` (centres undefined): 178 to 181 °C.
On to `ON=Cc1cccc2cccc(N3CCCC3)c12`, for which the melting point was in the range of 187 to 188 °C.
In the case of `N#CC(C#N)=C1N(CCN2CCCCC2)CCN1CCN1CCCCC1`, the melting point lay in the range of 104 to 106 °C.
The figure for `Cc1cc(OC(=O)C(C)(C)C)c(C)c(C)c1OCc1ccccc1` is 50 to 53 °C; for `C=CC(=O)OCCCOc1ccc(-c2ccc(C#N)cc2)cc1` it is 70 °C.
`CC(S(=O)(=O)c1ccc(OC(F)(F)F)cc1)S(=O)(=O)C(F)(F)F` (centres undefined): the melting point lay within 77 to 80 °C.
The figure for `CCCCn1c(=O)c2c(NC)n[nH]c2n(Cc2ccc(Cl)cc2)c1=O` is 292 to 294 °C; for `COc1ccc2c(O)c(-c3ccccc3OC)c(=O)[nH]c2c1` it is over 300 °C; for `O=C(O)C1CCc2nc3cc(Cl)ccc3c(Cl)c2C1` (centres undefined) it is over 250 °C.
The compound `COC(=O)CCC(=O)c1ccc(-c2ccc(Cl)c(Cl)c2)cc1` had a melting point of 120 to 121 °C.
In turn, `COc1nc(N)nc2c1ncn2C1OC(CO)C(OC(=O)C(C)(C)C)C1O` (centres undefined) showed a melting point of 113 to 115 °C.
Compound `O=C(c1cc2c(Br)cccc2o1)c1cc2c(Br)cccc2o1` returned a melting point of 223 to 225 °C.
Next, `Cc1cc(SCCc2ccc3sc(-c4ccc(C(F)(F)F)cc4)nc3c2)ccc1CCC(=O)O`: 108 to 110 °C; `O=C1CC2(CCCCC2)CN1O`: 110 °C; `Cn1ccc2cc(NC(=O)c3cc4cc(F)ccc4n3Cc3cccc(F)c3)ccc21`: 187 to 189 °C.
Next, `COc1ccc2c(n1)C1(CO2)C(=O)N(Cc2ccc(C(F)(F)F)o2)c2cccc(Cl)c21` (centres undefined): 106 to 108 °C; `Nc1ncnc2[nH]c(Br)c(-c3ccc(Oc4ccccc4)cc3)c12`: 282 to 283 °C; `COc1cc(C(=CC#N)c2cc(OC)c(OC)c(OC)c2)ccc1N`: 123 to 125 °C.
The figure for `COc1cnc(C(=O)O)cc1OC1CCCC1` is 184 to 185 °C; for `N=C(Nc1cc(Cl)cc(NC(=O)/C=C/c2ccccc2Br)c1)c1ccccc1` it is 99 to 101 °C.
Compound `N#Cn1c(SCC(=O)N2CCCc3ccccc32)nc2ccccc21` returned a melting point of 153 to 154 °C.
Next, `CCOC(=O)c1cnc2c(c(C)nn2C)c1N(C)S(=O)(=O)c1ccc(Oc2ccncc2)cc1`: 117 to 119 °C.
Next, `CCOC(=O)C1Cn2c(nc3c(cnn3C)c2=O)S1` (centres undefined): 159 °C.
Next, `COC(COC1CC2C3CCC4=CC(=O)CCC4(C)C3(F)C(O)CC2(C)C1(O)C(=O)CO)OC` (centres undefined): 192 to 194 °C; `Nc1nc(N)c(-c2ccc(Cl)cc2Cl)c(C(F)(F)F)n1`: 220 to 221 °C; `O=C1NC(=O)C(=Cc2ccc(S(=O)(=O)CCCc3ccccc3)cc2)S1`: 224 to 225 °C.
Consider `COc1ccc2c(c1)nc(O)c1nncn12`, for which the melting point is over 250 °C.
The figure for `CCOC(=O)C(=NO)c1cccnc1` is 137 to 138 °C; for `CC1(C)C=C(c2ccccn2)c2cc(Cl)cc(Cl)c2OC1` it is 124 °C; for `CC(C)P1(=O)c2ccccc2CN1c1ccccc1` (centres undefined) it is 145 to 147 °C.
`Cc1n[nH]c(C)c1CC1CC2c3cccc4[nH]cc(c34)CC2N(C)C1` (centres undefined) had a melting point of over 300 °C.

Values taken from a melting point compilation (Tetko et al.; mined from patent text by program, amines drawn as free bases though some values may be those of a salt).
